Measurements as given in paper PMC6366420, “Design and synthesis of 4-piperazinyl quinoline derived urea/thioureas for anti-breast cancer activity by a hybrid pharmacophore approach” (Journal of Enzyme Inhibition and Medicinal Chemistry, 2019).
Like-named read-outs stand apart in the source and are kept apart here.

Assays:
MCF10A = experiment: SRB antiproliferative assay, MCF10A non-cancer breast cells; assay type: cell-based, human; details: Homo sapiens, MCF-10A; SRB, 48 h incubation, MCF10A non-cancer immortalised breast cells; read-out: GI50 MCF10A
Procedure: (§1) The human breast cancer cell lines MDA-MB468, MDA-MB231 and MCF-7 were purchased from ATCC and maintained in RPMI 1640 medium supplemented with 10% fetal bovine serum (Hyclone, Logan UT) and 2 mM L-glutamine. MCF10A and 184B5 immortalised breast cells were purchased from ATCC and maintained in mammary epithelial basal medium supplemented with an MEGM mammary epithelial singlequot kit (Cambrex). Cells were grown at 37 °C with 5% CO2, 95% air under the humidified conditions. Cell line authentication was carried out by Genetica DNA Laboratories (Burlington, NC) using a short tandem repeat profiling method (March 2015; July 2015; September 2016).
(§2) Cell cytotoxic effects were determined by a SRB-based protocol[2]^,[25].
(§3) The newly synthesised 4-piperazinylquinoline compounds (5–30) were evaluated for their antiproliferative effects using three breast cancer cell lines, for which the compounds were diluted to achieve seven different concentrations ranging from […]. Followed by 48 h incubation with the compound, cells were treated with sulforhodamine B (SRB) to measure their growth/viability (% of the untreated control) by spectrophotometer. The total cellular macromolecules levels known to accurately reflect by UV reading of SRB staining. […] The reference compounds CQ and cisplatin were included for the comparison.
(§4) We further assessed their antiproliferative effects on two non-cancer immortalised cell lines (184B5 and MCF10A). […] The antiproliferative effects of compound 23 on cancer cells are thus 7-fold (MDA-MB468 vs MCF10A) to 11-fold (MDA-MB231 vs 184B5) higher than matching non-cancer breast cells, which may indicate that compound 23 could potentially be safer than other compounds. Therefore, we examined it further to gain insights into its molecular mechanism of action.

MDA-MB231 = experiment: SRB antiproliferative assay, MDA-MB231; assay type: cell-based, human; details: SRB, 48 h incubation, MDA-MB231 triple-negative breast cancer cells, read-out: GI50 MDA-MB231
Procedure: as §1, §2, §3

MCF7 cells = experiment: Mitochondrial (MitoTracker) and lysosomal (LysoTracker) staining of MCF7 cells; assay type: cell-based, human
Procedure: (§5) Lysosomal and AO staining were carried out as described previously. Mitochondrial staining with MitoTracker was carried out as described previously. Briefly, cells were plated on a poly-D-lysine pre-coated 1.8-cm sterile glass coverslip that had been placed in a well of a 6-well clustered dish. Cells were then incubated with 50 nM MitoTracker Red (ThermoFisher) for 30 min in a cell culture incubator. Plasma membrane staining was carried out with lipid-specific CellMask (Molecular probes, Life Technologies), according to the manufacturer’s instruction. For actin staining, cells fixed with 4% formaldehyde were incubated with phalloidin conjugated with Fitc (green) for 30 min. For nuclear staining, cells were incubated with 5 µM of DRAQ5 (blue) for 5 min.
It should be noted that these abnormalities could occur if the membranes of these organelles are compromised. Thus, the molecular target of compound 23 is likely a common element found in the membranes of cytoplasm, mitochondria and lysosomes, but not in the nuclear membrane as it is not compromised in the presence of compound 23 (Figures 4–6).
Figure 5. Mitochondrial membrane may be compromised in the presence of compound 23. […] (b) Mitochondria are aggregated and disorganized in the presence of compound 23. MCF7 mitochondria and nuclei were stained with MitoTracker and DRAQ5, respectively, as descried in Materials and methods.
Figure 6. […]

184B5 = experiment: SRB antiproliferative assay, 184B5 non-cancer breast cells; assay type: cell-based, human; details: Homo sapiens; SRB, 48 h incubation, 184B5 non-cancer immortalised breast cells; read-out: GI50 184B5
Procedure: as §1, §2, §3, §4

MCF7 = experiment: SRB antiproliferative assay, MCF7; assay type: cell-based, human; details: Homo sapiens; SRB, 48 h incubation, MCF7 breast cancer cells; read-out: GI50 MCF7
Procedure: as §1, §2, §3

[1] = system: breast cancer and non-cancer breast cell lines; experiment: SRB antiproliferative comparison of breast cancer and non-cancer breast cell lines; assay type: cell-based, human
Procedure: as §1, §2, §3, §4

MDA-MB468 = experiment: SRB antiproliferative assay, MDA-MB468; assay type: cell-based, human; details: SRB, 48 h incubation, MDA-MB468 breast cancer cells, read-out: GI50 MDA-MB468
Procedure: as §1, §2, §3

MCF7 breast cancer cells = experiment: Plasma membrane integrity staining (EtBr, AO, CellMask) of MCF7 cells; assay type: cell-based, human
Procedure: as §5
However, it is currently unclear how lipid molecules are found throughout the entire cytoplasm. […] In addition, cells treated with compound 23 are often enlarged and flattened, and contained multi-nuclei. In addition, many small vacuoles are found in the cytoplasm of these cells (Figure 4(a–c)). All of these phenomena are likely leading to eventual cancer cell demise in the presence of compound 23.
Figure 4. […] (a) MCF7 cell morphology changes in the presence of compound 23. MCF7 cells were sham treated or treated with compound 23 for 48 h, followed by staining with either EtBr. […]

## S=C(NCCN1CCOCC1)N1CCN(c2ccnc3cc(Cl)ccc23)CC1 [Compound 23, 4-(7-Chloro-quinolin-4-yl)-piperazine-1-carbothioic acid (2-morpholin-4-yl-ethyl)-amide]
MCF10A
  GI50: 32.3 ± 0.8 µM
MDA-MB231; Homo sapiens, MDA-MB-231, 48 h
  GI50: 5.3 µM
MDA-MB231
  GI50: 3 ± 0.1 µM
MCF7 cells
  mitochondrial and lysosomal volumes (in words): substantial increases in mitochondrial and lysosomal volumes
184B5
  GI50: 34.4 ± 0.6 µM
other
  melting point: 114 to 115 °C
MCF7
  GI50: 4.5 ± 0.1 µM
[1]; MDA-MB231 vs 184B5
  antiproliferative effect on cancer cells higher than matching non-cancer breast cells: 11 fold
[1]; MDA-MB468 vs MCF10A
  antiproliferative effect on cancer cells higher than matching non-cancer breast cells: 7 fold
[1]; breast cancer cell lines, GI50 comparison
  higher activity than the reference compounds cisplatin and CQ: 4-8 fold
[1]; overall range, cancer vs non-cancer breast cells
  antigrowth/cell-killing activity higher on cancer than non-cancer cells: 7-11 fold
[1]; three breast cancer lines vs 184B5 and MCF10A
  antigrowth effect against cancer versus non-cancer cells (in words): much stronger activities against cancer than non-cancer cells
MDA-MB468; Homo sapiens, MDA-MB-468, 48 h
  GI50: 4.7 µM
MDA-MB468
  GI50: 4.6 ± 0.6 µM
MCF7 breast cancer cells; MCF7, of 500 cells examined, 24-h post treatment
  cells showing compromised plasma membrane phenotypes: 42.4 ± 4.8%
MCF7 breast cancer cells; MCF7 cells, treated 48 h, vs Sham control
  ethidium bromide uptake / plasma membrane integrity (in words): readily uptake ethidium bromide
